Data taken from patent publication US20080171737A1 (Wyeth, priority 2006, published 2008).
Structures can show the parent of a compound that is named as a salt.

Each compound was assayed against T1, human hNET (Homo sapiens, UniProt P23975) (assay: Functional norepinephrine reuptake assay, Procedure B (6,000 cells/well)). Details: not given.
T1 construct: expressed in transfected cells; host or cells: MDCK-Net6 (MDCK cells stably transfected with hNET)
Assay type: cell-based
Procedure: For screening, 25 μl aliquots of compound solution at a 1 μM or 10 μM final concentration was delivered directly to cells.
For IC50 determinations, stock compounds were prepared at 10 mM from powder. The stock solution was diluted according to compound testing range. […] On the day of assay, 25 μl of compound solution at the specified concentrations were added to the plates containing cells. A DMSO stock of desipramine was prepared at 10 mM in DMSO and diluted for a final concentration of 20 μM to determine the non-specific reuptake.
MDCK-Net6 cells, stably transfected with human hNET (Pacholczyk, 1991), were maintained in growth media [high glucose DMEM (Gibco Cat. 11995), 10% FBS (dialyzed, heat-inactivated, Sigma, dialysed, heat inactivated, Lot# K0922 or equivalent) 1xPen/Strep, and 500 μg/ml G418 (Gibco Cat. 10131)]. Cells were plated at 300,000/T75 flask and cells split twice weekly.
Cells were plated at 50,000 cells/well (Procedure A) or 6,000 cells/well (Procedure B) on day 1 in BD Falcon Microtest 96-well sterile cell culture plates, Optilux White/Clear Bottom TC plate (VWR; # 62406-466 or equivalent) in growth media and maintained in a cell incubator (37° C., 5% CO2). On Day 2, cells were removed from the cell incubator and the growth media is replaced by 200 μl of assay buffer (25 mm HEPES 120 mM NaCL; 5 mM KCl; 2.5 mM CaCl2; 1.2 mM MgSO4; 2 mg/ml glucose (pH 7.4, 37° C.)) containing 0.2 mg/ml ascorbic acid and 1 μM parglyine. For screening, 25 μl of compound in 4% DMSO was added directly to each well and the plate was incubated for 5 minutes (37° C.). […] The reaction is aspirated from the plate and the cells washed with 250 μl of 50 mM Tris Buffer (4° C.). The plates were left to dry for 1 hour. The cells were lysed using 0.25 M NaOH solution then placed on a shake table and vigorously shaken for 10 minutes. After cell lysis, 100 μl of Microscint 20 (PerkinElmer; #87-051101) was added to the plates and the plates were sealed with film tape and replaced on the shake table for a minimum of 10 minutes. The plates were counted in a TopCount counter (PerkinElmer).
% inhibition=[1−((mean cpm test compound wells−mean cpm non-specific wells)/(mean cpm control wells−mean cpm non-specific wells))]×100
For IC50 determination, raw cpm values were generated in a data file from the TopCount counter. The data was organized using the Microsoft Excel and transferred into PRIZM graphing and statistical program, which calculated the estimated IC50 value. Calculation of IC50 values was made using non-linear regression analysis with a sigmoidal dose response with variable slope. The statistical program used wells containing ^3H norepinephrine only as the maximal NE reuptake determinant and wells containing ^3H norepinephrine plus 20 μM desipramine (AHR-9543) as the minimal NE reuptake determinant (non-specific determinant). Estimation of the IC50 value was completed on a log scale and the line was fit between the maximal and minimal NE reuptake values.

T1 sequence (P23975 whole entry): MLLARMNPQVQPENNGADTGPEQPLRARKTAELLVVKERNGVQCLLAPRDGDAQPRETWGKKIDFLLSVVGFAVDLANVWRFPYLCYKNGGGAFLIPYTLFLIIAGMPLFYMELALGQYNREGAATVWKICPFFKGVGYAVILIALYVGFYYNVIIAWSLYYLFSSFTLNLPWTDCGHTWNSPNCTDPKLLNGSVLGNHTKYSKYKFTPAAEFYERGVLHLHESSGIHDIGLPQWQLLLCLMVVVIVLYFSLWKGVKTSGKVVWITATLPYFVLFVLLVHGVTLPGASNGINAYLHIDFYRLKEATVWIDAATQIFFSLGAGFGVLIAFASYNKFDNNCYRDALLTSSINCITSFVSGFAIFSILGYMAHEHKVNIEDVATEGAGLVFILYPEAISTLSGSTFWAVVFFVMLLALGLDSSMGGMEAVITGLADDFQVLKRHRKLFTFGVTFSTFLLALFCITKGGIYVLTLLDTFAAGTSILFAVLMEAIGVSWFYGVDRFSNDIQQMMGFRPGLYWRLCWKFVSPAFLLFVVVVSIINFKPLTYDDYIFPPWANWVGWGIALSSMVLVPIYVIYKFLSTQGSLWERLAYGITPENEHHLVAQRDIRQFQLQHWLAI

| SMILES | IC50 [nM] |
| --- | --- |
| CNCCC[C@@H]1Cc2cc(F)ccc2N(c2c(F)cccc2F)S1(=O)=O (single isomer, unassigned) [Example 156] | 27 |
| CNCCC[C@H]1Cc2cc(F)ccc2N(c2c(F)cccc2F)S1(=O)=O (single isomer, unassigned) [Example 155] | 25 |

Same assay, conditions: MDCK-Net6 cells, 6,000 cells/well, 16 nM 3H-norepinephrine; read-out: Procedure B hNET uptake IC50

| IC50 [nM] | SMILES |
| --- | --- |
| 193 | NCCNCC1Oc2ccccc2N(c2ccccc2)S1(=O)=O (centres unmarked) [Example 137, N-[(2,2-dioxido-1-phenyl-1H-4,2,1-benzoxathiazin-3-yl)methyl]ethane-1,2-diamine] |
| 143 | CNCCC[C@H]1Cc2cc(F)ccc2N(c2ccccc2C)S1(=O)=O (single isomer, unassigned) [Example 161] |
| 20 | CNCCC[C@H]1Cc2cc(Cl)ccc2N(c2ccccc2F)S1(=O)=O (single isomer, unassigned) [Example 176] |
| 74 | CNCCCC1Cc2cc(F)ccc2N(c2cccc(F)c2F)S1(=O)=O (racemic) [Example 145, 3-[1-(2,3-difluorophenyl)-6-fluoro-2,2-dioxido-3,4-dihydro-1H-2,1-benzothiazin-3-yl]-N-methylpropan-1-amine] |
| 74 | CNCCC[C@H]1Cc2cc(F)ccc2N(c2ccc(C)cc2F)S1(=O)=O (single isomer, unassigned) [Example 149] |
| 636 | CNCCCC1Oc2cccc(F)c2N(c2ccccc2)S1(=O)=O (centres unmarked) [Example 48, 3-(8-fluoro-2,2-dioxido-1-phenyl-1H-4,2,1-benzoxathiazin-3-yl)-N-methylpropan-1-amine] |
| 23.9 | CNCCC[C@@H]1Oc2ccccc2N(c2ccccc2)S1(=O)=O (single isomer, unassigned) [Example 14] |
| 115 | CNCCC[C@@H]1Oc2cc3ccccc3cc2N(c2ccccc2)S1(=O)=O (single isomer, unassigned) [Example 72, Hydrochloride] |
| 19 | CNCCCC1Oc2ccccc2N(c2ccccc2F)S1(=O)=O (centres unmarked) [Example 92] |
| 644 | CNCCN(C)CC1Oc2ccccc2N(c2ccccc2)S1(=O)=O (centres unmarked) [Example 139, N-[(2,2-dioxido-1-phenyl-1H-4,2,1-benzoxathiazin-3-yl)methyl]-N,N′-dimethylethane-1,2-diamine] |
| 100 | CNCCC[C@H]1Cc2cc(F)ccc2N(c2ccc(F)cc2F)S1(=O)=O (single isomer, unassigned) [Example 112] |
| 26.4 | CNCCCC1Oc2ccccc2N(c2ccc(C)cc2)S1(=O)=O (centres unmarked) [Example 17, N-methyl-3-[1-(4-methylphenyl)-2,2-dioxido-1H-4,2,1-benzoxathiazin-3-yl]propan-1-amine] |
| 1640 | O=S1(=O)C(CCN2CCCC2)Oc2ccccc2N1c1ccccc1 (centres unmarked) [Example 29, 1-phenyl-3-(2-pyrrolidin-1-ylethyl)-1H-4,2,1-benzoxathiazine 2,2-dioxide] |
| 96 | CNCCCC1Cc2cc(F)ccc2N(c2ccc(F)cc2C)S1(=O)=O (racemic) [Example 169, 3-[6-fluoro-1-(4-fluoro-2-methylphenyl)-2,2-dioxido-3,4-dihydro-1H-2,1-benzothiazin-3-yl]-N-methylpropan-1-amine] |
| 79 | CNCC[C@H](O)[C@H]1Cc2ccccc2N(c2ccccc2)S1(=O)=O (single isomer, unassigned) [Example 117] |
| 900 | CNCCCC1Oc2cccc(C)c2N(c2ccccc2)S1(=O)=O (centres unmarked) [Example 49, N-methyl-3-(8-methyl-2,2-dioxido-1-phenyl-1H-4,2,1-benzoxathiazin-3-yl)propan-1-amine] |
| 244 | CCNCCC1Oc2ccccc2N(c2ccccc2)S1(=O)=O (centres unmarked) [Example 23, 2-(2,2-dioxido-1-phenyl-1H-4,2,1-benzoxathiazin-3-yl)-N-ethylethanamine] |
| 733 | CNCCCC1Oc2cc3ccccc3cc2N(c2ccc(C)cc2)S1(=O)=O (centres unmarked) [Example 69, N-methyl-3-[1-(4-methylphenyl)-2,2-dioxido-1H-naphtho[2,3-e][1,3,4]oxathiazin-3-yl]propan-1-amine Hydrochloride] |
| 288 | CNCCC[C@H]1Cc2cc(F)ccc2N(c2ccccc2C#N)S1(=O)=O (single isomer, unassigned) [Example 164] |
| 4320 | CN(C)CCN(C)CC1Oc2ccccc2N(c2ccccc2)S1(=O)=O (centres unmarked) [Example 140, N-[(2,2-dioxido-1-phenyl-1H-4,2,1-benzoxathiazin-3-yl)methyl]-N,N′,N′-trimethylethane-1,2-diamine] |
| 4150 | CNCCCC1Oc2ccccc2N(c2cc(C)cc(C)c2)S1(=O)=O (centres unmarked) [Example 22, 3-[1-(3,5-dimethylphenyl)-2,2-dioxido-1H-4,2,1-benzoxathiazin-3-yl]-N-methylpropan-1-amine] |
| 1760 | CC(C)CNCCC1Oc2ccccc2N(c2ccccc2)S1(=O)=O (centres unmarked) [Example 28, N-[2-(2,2-dioxido-1-phenyl-1H-4,2,1-benzoxathiazin-3-yl)ethyl]-2-methylpropan-1-amine] |
| 34 | CNCCC[C@@H]1Cc2cc(F)ccc2N(c2ccc(F)cc2F)S1(=O)=O (single isomer, unassigned) [Example 113] |
| 119 | CNCCCC1Oc2cc3ccccc3cc2N(c2cccc(F)c2)S1(=O)=O (centres unmarked) [Example 70, 3-[1-(3-fluorophenyl)-2,2-dioxido-1H-naphtho[2,3-e][1,3,4]oxathiazin-3-yl]-N-methylpropan-1-amine Hydrochloride] |
| 302 | CNCC[C@H]1Oc2ccccc2N(c2ccccc2)S1(=O)=O (single isomer, unassigned) [Example 104] |
| 165 | O=S1(=O)C(CN2CCNCC2)Oc2ccccc2N1c1ccccc1 (centres unmarked) [Example 135, 1-phenyl-3-(piperazin-1-ylmethyl)-1H-4,2,1-benzoxathiazine 2,2-dioxide] |
| 24 | CNCCCC1Cc2cc(F)ccc2N(c2ccccc2F)S1(=O)=O (centres unmarked) [Example 108, 3-[6-fluoro-1-(2-fluorophenyl)-2,2-dioxido-3,4-dihydro-1H-2,1-benzothiazin-3-yl]-N-methylpropan-1-amine] |
| 62 | CNCCCC1Cc2ccccc2N(c2ccc(F)cc2F)S1(=O)=O (racemic) [Example 99, 3-[1-(2,4-difluorophenyl)-2,2-dioxido-3,4-dihydro-1H-2,1-benzothiazin-3-yl]-N-methylpropan-1-amine] |
| 431 | CNCCCC1Oc2c(F)cccc2N(c2ccccc2)S1(=O)=O (centres unmarked) [Example 47, 3-(5-fluoro-2,2-dioxido-1-phenyl-1H-4,2,1-benzoxathiazin-3-yl)-N-methylpropan-1-amine] |

Same assay, conditions: MDCK-Net6 cells, 6,000 cells/well; Conc 6000 nM (6 μM); read-out: Procedure B hNET uptake (% inhibition)

| inhibition at 6 µM [%] | SMILES |
| --- | --- |
| 35 | CN1CCN(CCC2Oc3ccccc3N(c3ccccc3)S2(=O)=O)CC1 (centres unmarked) [Example 30, 3-[2-(4-methylpiperazin-1-yl)ethyl]-1-phenyl-1H-4,2,1-benzoxathiazine 2,2-dioxide] |
| 47 | CCN(CC)CCCC1Oc2ccccc2N(c2ccccc2)S1(=O)=O (centres unmarked) [Example 82, 3-(2,2-dioxido-1-phenyl-1H-4,2,1-benzoxathiazin-3-yl)-N,N-diethylpropan-1-amine hydrochloride] |
| 32 | O=S1(=O)C(CCCNCCCO)Oc2ccccc2N1c1ccccc1 (centres unmarked) [Example 39, 3-{[3-(2,2-dioxido-1-phenyl-1H-4,2,1-benzoxathiazin-3-yl)propyl]amino}propan-1-ol] |
| 67 | O=S1(=O)C(CCCNC2CCCCC2)Oc2ccccc2N1c1ccccc1 (centres unmarked) [Example 43, N-[3-(2,2-dioxido-1-phenyl-1H-4,2,1-benzoxathiazin-3-yl)propyl]cyclohexanamine] |
